Assay: Tableting study: compression forces and crushing strength of tablets (eccentric tableting machine, Scleuninger-E apparatus)
Assay type: physicochemical
Conditions: tablets of target weight 300 mg, flat-faced 9 mm punches, die wall lubricated with 5% (w/V) magnesium stearate in acetone; upper punch force differs per material (Table 1)
Protocol: The material obtained from Example 1 was tableted using an instrumented eccentric tableting machine (Korsch EK-0, Erweka Apparatebau, Heusenstamm, Germany) Flat-faced 9 mm punches were used and the die wall was lubricated using 5% (w/V) magnesium stearate in acetone before each compression. The target weights of tablets were 300 mg. Compression forces during the compression process were measured and the crushing strength of each tablet was measured using Scleuninger-E apparatus (Switzerland) (Table 1).

Crushing strength: No tablet, no measurable
Compound: CC(=O)Nc1ccc(O)cc1 [Neat paracetamol, paracetamol]
